This note sets out measurements from ChEMBL document CHEMBL1137248, “2-(3-Amino-3-deoxy-beta-D-xylofuranosyl)thiazole-4-carboxamide: a new tiazofurin analogue with potent antitumour activity” (Bioorg Med Chem Lett, 2006).

Holding throughout (assay type): cell-based
One test deals with K562. The experiment in a line: Cytotoxicity against human K562 cells after 24 hrs by MTT assay. Conditions: K562, 24 h.
The subject of the next test is Jurkat. The test can be described thus: Cytotoxicity against Jurkat cells after 24 hrs by MTT assay. Conditions: Homo sapiens. For orientation: Tetrazolium assays rely on reduction of a dye to a coloured formazan, in cell work by metabolically active cells.
The subject of a further test is HeLa. The test can be described thus: Cytotoxicity against HeLa cells after 24 hrs by MTT assay. Conditions: Homo sapiens.
Another test deals with HT-29. The experiment in a line: Cytotoxicity against HT29 cells after 24 hrs by MTT assay. Particulars: Homo sapiens, HT-29, 24 h.
Another test concerns MRC5. The experiment in a line: Cytotoxicity against MRC5 cells after 24 hrs by MTT assay. Conditions: Homo sapiens, MRC5, 24 h.

As to `NC(=O)c1csc([C@@H]2O[C@H](CO)[C@@H](O)[C@H]2O)n1` [TIAZOFURIN], the IC50 (usually the concentration that inhibits the measured activity by half) with K562 turned out to be 5290 nM; in the test with Jurkat, 140 nM; in the test on HeLa, 4760 nM.

Take `NC(=O)c1csc([C@@H]2O[C@H](CO)[C@H](N)[C@H]2O)n1`: the IC50 is 52 nM with K562; 60 nM in the test with Jurkat; 37 nM with HT-29; 280 nM in the test on HeLa; more than 100000 nM with MRC5.

For `CC(=O)N[C@@H]1[C@@H](O)[C@H](c2nc(C(N)=O)cs2)O[C@@H]1CO`, the IC50 in the test on K562 is 95 nM; in the test with Jurkat, 450 nM; in the test with HT-29, 1000 nM; in the test on HeLa, more than 100000 nM; in the test on MRC5, 89700 nM.
